Experimental data: patent US12023320B2, “Therapeutic agent for fatty liver disease” (EA PHARMA CO., LTD., priority 2020, dated 2024)

Test system: high-fat and high-fructose-induced NASH model (FFD model)
Assay: high-fat and high-fructose-induced NASH model (fast-food diet model: FFD model), 18 weeks gavage
Assay type: in vivo, C57BL/6J Jms Slc male mice
Settings: for histopathological findings: Fat formation: large fat droplets, number of mice graded ± (Slight) / histopathological findings: Fat formation: large fat droplets, number of mice graded + (Moderate): 8 mice evaluated; for histopathological findings: Fat formation: large fat droplets, number of mice graded ± (Slight) / histopathological findings: Fibrosis, number of mice graded ± (Slight): Vehicle 3; for histopathological findings: Fat formation: large fat droplets, number of mice graded + (Moderate) / histopathological findings: Fibrosis, number of mice graded + (Moderate): Vehicle 5; for histopathological findings: Fibrosis, number of mice graded ± (Slight) / histopathological findings: Fibrosis, number of mice graded + (Moderate): individuals with liver nodules excluded; for number of CD68-positive hCLS in the liver (inhibitory effect on the increase vs Vehicle group): after 18 weeks of administration (FIG. 5); for liver TG (inhibitory effect on the increase vs Vehicle group): after 18 weeks of administration (FIG. 3)
Experimental: In the present Examples, using a high-fat and high-fructose-induced NASH model (fast-food diet model: FFD model), the effect of a test drug was evaluated. For the FFD model, refer to BMC Gastroenterol. 2020; 20: 210 and Am J Physiol Gastrointest Liver Physiol. 2013 Oct. 1; 305(7): G483-95. The test drug was prepared by adding hydrochloride of the compound represented by the formula (1) (hereinafter referred to as “compound 1”) to 0.5% MC and sonicating the mixture. 6-week-old C57BL/6J Jms Slc male mice were fed with standard diet (D09100304, Research Diets, Inc.) or FFD diet for pathogenesis (D09100310N, Research Diets, Inc.) for 20 weeks. Then, the mice were grouped as shown in Table 1 based on three indices, i.e., plasma alanine aminotransferase (ALT) levels, body weight, and fasting blood glucose levels. According to the dosage and usage shown in Table 1, the administration substance was gavaged to each group for 18 weeks. [table] ALT was measured by collecting blood from the tail vein after 12 weeks of administration. An autopsy was performed after 18 weeks of administration, and plasma aspartate aminotransferase (AST), plasma total cholesterol (Tcho), and liver triglyceride (TG) were measured. In addition, the Sirius red-positive area and the number of hepatic crown-like structures (hCLS) were measured by liver pathological analysis. Statistical analysis was performed using GraphPad Prism 6 (GraphPad Software, Inc.). For the Normal group and the Vehicle group, t-test or Mann-Whitney's test was performed. For the Vehicle group and the compound 1 group, Dunnett' multiple comparison test or Dunn's multiple comparison test was performed. Any of the test methods was appropriately selected according to the distribution of each parameter. The significance level of all the tests was set to p=0.05. A liver sample was homogenized in a phosphate buffer and extracted with methanol and chloroform overnight. Then, chloroform and distilled water were further added thereto. The mixture was separated by centrifugation, the chloroform layer was collected, and the solvent was dried. The precipitate was dissolved in isopropanol/TritonX-100, and this was used as a measurement sample, the measurement was carried out using Triglyceride E-Test Wako (FUJIFILM Wako Pure Chemical Corporation). The excised liver was fixed in a 10% neutral buffered formalin solution, and embedded in paraffin and Sirius red-stained specimens were prepared according to standard methods. The Sirius red-stained specimen was used to calculate the positive area. The positive area of the Normal group was averaged and used as the background. A CD68 immunostaining specimen (rabbit anti-CD68 polyclonal antibody [ab125212], Abcam) was prepared, and the number of hCLS was counted.

[1] = compound 1 (60) group, 60 mg/kg/day BID

Compound: CC(C)(Cc1ccc(C(=O)Oc2ccc(C(=N)N)cc2F)s1)C(=O)O [compound 1]
- histopathological findings: Fat formation: large fat droplets, number of mice graded ± (Slight) (10 mg/kg QD): 4
- histopathological findings: Fat formation: large fat droplets, number of mice graded + (Moderate) (10 mg/kg QD): 4
- histopathological findings: Fibrosis, number of mice graded ± (Slight) (10 mg/kg QD): 6
- histopathological findings: Fibrosis, number of mice graded + (Moderate) (10 mg/kg QD): 2
- histopathological findings: Fat formation: large fat droplets, number of mice graded ± (Slight) (30 mg/kg QD): 2
- histopathological findings: Fat formation: large fat droplets, number of mice graded + (Moderate) (30 mg/kg QD): 6
- histopathological findings: Fibrosis, number of mice graded ± (Slight) (30 mg/kg QD): 6
- histopathological findings: Fibrosis, number of mice graded + (Moderate) (30 mg/kg QD): 1
- histopathological findings: Fat formation: large fat droplets, number of mice graded ± (Slight) (60 mg/kg/day BID): 7
- histopathological findings: Fat formation: large fat droplets, number of mice graded + (Moderate) (60 mg/kg/day BID): 1
- histopathological findings: Fibrosis, number of mice graded ± (Slight) (60 mg/kg/day BID): 6
- histopathological findings: Fibrosis, number of mice graded + (Moderate) (60 mg/kg/day BID): 2
- number of CD68-positive hCLS in the liver (inhibitory effect on the increase vs Vehicle group) (compound 1 (10) group, 10 mg/kg QD): statistically significant inhibitory effect
- liver TG (inhibitory effect on the increase vs Vehicle group) (compound 1 (30) group, 30 mg/kg QD): statistically significant inhibitory effect
- plasma ALT (inhibitory effect on the increase vs Vehicle group) (compound 1 (60) group, 60 mg/kg/day BID, after 12 weeks and 18 weeks of administration (FIG. 1A, 1B)): statistically significant inhibitory effect
- plasma AST (inhibitory effect on the increase vs Vehicle group) (compound 1 (60) group, 60 mg/kg/day BID, after 18 weeks of administration (FIG. 1C)): statistically significant inhibitory effect
- plasma Tcho (inhibitory effect on the increase vs Vehicle group) (compound 1 (60) group, 60 mg/kg/day BID, after 18 weeks of administration (FIG. 2)): statistically significant inhibitory effect
- liver TG (inhibitory effect on the increase vs Vehicle group) [1]: statistically significant inhibitory effect
- Sirius red-positive area in the liver (inhibitory effect on the increase vs Vehicle group) (compound 1 (60) group, 60 mg/kg/day BID, after 18 weeks of administration (FIG. 4)): statistically significant inhibitory effect
- number of CD68-positive hCLS in the liver (inhibitory effect on the increase vs Vehicle group) [1]: statistically significant inhibitory effect
